{"source": "paper PMC6910946", "about": "“Multiple roles of Bet v 1 ligands in allergen stabilization and modulation of endosomal protease activity” (Allergy, 2019)", "key": {"Bet_v_1": {"molecular_target": "T1, Bet_v_1 (Betula pendula, UniProt P15494)", "T1 construct": "made in house", "T1 sequence (P15494 1-160)": "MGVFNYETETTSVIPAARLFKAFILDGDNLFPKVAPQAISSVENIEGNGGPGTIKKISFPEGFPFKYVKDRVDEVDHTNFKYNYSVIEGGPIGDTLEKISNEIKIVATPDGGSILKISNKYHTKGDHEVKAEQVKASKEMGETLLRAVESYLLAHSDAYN", "test": "NMR spectroscopy (1H-15N HSQC) binding confirmation", "description": "Surface acoustic wave (SAW) technology and NMR spectroscopy were used to observe the interaction of Bet_v_1 with the selected compounds, including determination of the dissociation constant (K d). The influence of ligand binding on the secondary structure elements and the thermal stability of Bet_v_1 was monitored using circular dichroism (CD, JASCO J‐815 spectropolarimeter, Jasco) and Fourier transform infrared (FTIR) spectroscopy (Tensor II FTIR system, Bruker Optics Inc). A detailed description of these methods is available (Appendix [Link], [Link]).\nTo validate the interactions determined by SAW, we used NMR spectroscopy to test the specific binding of PPE1, LTA, LPS, and Kdo2 to Bet_v_1 (Table 1, Figure S2). […] The commercially available PPA1 was used as a substitute for PPE1 to identify the phytoprostane binding site(s).\nThe NMR data were acquired with either a 600 or 800 MHz Agilent DD2 spectrometer with a cryogenically cooled probe using the pulse sequence gNhsqc. Bet v 1 assignments were taken from.^2 The experiments were performed under the following conditions: LTA: 45 µM Bet v 1 and 300 µM LTA in PBS, 10% ^2H2O, 60 µM DSS; PPE1: 25 µM Bet v 1 and 2 µM PPE1 in PBS, 5% ^2H-(d6) DMSO, 10% ^2H2O, 60 µM DSS; PPA1: 100 µM Bet v 1 and 302 µM PPA1 (Cayman Chemical, MI, USA) in PBS, 8.7% ^2H-(d6) DMSO, 10% ^2H2O, 60 µM DSS; LPS: 100 µM Bet v 1 and 400 µM LPS in PBS pH 7.4, 10% ^2H2O, 60 µM DSS. Kdo2: 100 µM Bet v 1 and 422 µM Kdo2 in PBS pH 7.0, 10% ^2H2O, 8.6% ^2H-(d6) DMSO, 60 µM DSS."}, "cathepsin S": {"molecular_target": "T2, cathepsin S (Homo sapiens, UniProt P25774)", "T2 construct": "made in house", "T2 sequence (P25774 115-331)": "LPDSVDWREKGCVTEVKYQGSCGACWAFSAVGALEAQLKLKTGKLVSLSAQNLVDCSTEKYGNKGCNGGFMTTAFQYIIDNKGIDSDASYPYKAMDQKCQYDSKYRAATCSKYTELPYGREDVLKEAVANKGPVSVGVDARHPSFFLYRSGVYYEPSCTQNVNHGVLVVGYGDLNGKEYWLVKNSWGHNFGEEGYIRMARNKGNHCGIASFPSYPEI", "test": "Enzymatic activity assay, fluorogenic substrate Z-VVR-AMC", "assay_type": "biochemical", "description": "(§1) To evaluate the influence of Bet_v_1 ligands on cathepsin S and legumain activities, 10 nmol/L of protease was incubated with 100 µmol/L of ligand (unless otherwise stated) and 50 µmol/L of fluorogenic substrate in digestion buffer (0.1 mol/L sodium acetate pH 5.0, 0.1 mol/L sodium chloride, 5 mmol/L EDTA, and 2 mmol/L DTT), as described in the Appendix [Link], [Link]. The effect of birch pollen extract (BPE) (20‐200 µg/mL) on the cathepsin S and legumain activities was assessed in parallel. The inhibitory effect of PPE1 was assessed by replacing DTT with 0.5 mmol/L TCEP. Activities of recombinant rat cathepsin B (provided by Dr Lukas Mach) and papain (Merck) at 10 nmol/L were assayed using Z‐FR‐AMC (Bachem) as a fluorogenic substrate.\n(§2) For the detection of cathepsin or legumain activities in the microsomal fraction, 8 µg of microsomal extract was incubated with 50 µM fluorogenic substrate with or without inhibitor in assay buffer (100 mM citrate pH 4.8 and 2 mM DTT). The enzymatic reactions were carried out in a 50 µL reaction volume in a 96-half-well black flat bottom assay plate (Corning Inc., Corning, NY, USA) at 37°C. The fluorescence signal was recorded using a Tecan Infinite-200 plate reader (Tecan, Männedorf, Switzerland) at an excitation wavelength of 380 nm and emission wavelength of 460 nm for 15 min of continuous measurement with a 30-s interval reading. The fluorogenic substrates used for cathepsin S and legumain were Z-VVR-AMC and Z-AAN-AMC (Bachem, Bubendorf, Switzerland), respectively. The inhibitors used for cathepsin S and legumain were Z-FL-COCHO (Sigma-Aldrich, CA, USA) and Ac-YVAD-CMK (Bachem), respectively^11."}, "legumain": {"molecular_target": "T3, legumain (Homo sapiens, UniProt Q99538)", "T3 construct": "made in house", "T3 sequence (Q99538 18-433)": "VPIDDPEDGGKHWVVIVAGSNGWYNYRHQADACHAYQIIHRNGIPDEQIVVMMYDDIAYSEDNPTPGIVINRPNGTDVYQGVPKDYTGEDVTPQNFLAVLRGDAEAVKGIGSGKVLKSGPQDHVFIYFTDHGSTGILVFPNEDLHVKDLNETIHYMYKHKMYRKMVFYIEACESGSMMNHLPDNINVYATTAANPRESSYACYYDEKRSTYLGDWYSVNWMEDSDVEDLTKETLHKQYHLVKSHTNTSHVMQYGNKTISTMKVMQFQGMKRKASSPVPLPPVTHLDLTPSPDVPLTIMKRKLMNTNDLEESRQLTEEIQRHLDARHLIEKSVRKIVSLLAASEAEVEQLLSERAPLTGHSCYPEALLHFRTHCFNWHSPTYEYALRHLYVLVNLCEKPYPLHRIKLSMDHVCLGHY", "test": "Enzymatic activity assay, fluorogenic substrate Z-AAN-AMC", "assay_type": "biochemical", "conditions": "PPE1 5 µmol/L (Figure 4D)", "description": "as §1\nas §2, with “The fluorogenic substrates used for cathepsin S and legumain were Z-VVR-AMC and Z-AAN-AMC (Bachem, Bubendorf, Switzerland), respectively. The inhibitors used for cathepsin S and legumain were Z-FL-COCHO (Sigma-Aldrich, CA, USA) and Ac-YVAD-CMK (Bachem), respectively^11.” left out"}}}
{"smiles": "CCC1C(=O)CC(O)C1/C=C/C(O)CCCCCCCC(=O)O", "note": "(stereo not drawn) [PPE1, E1 phytoprostanes]", "values": [{"measurement": "NMR (binding confirmation, K d)", "setting": "Bet_v_1; 15N-labeled Bet v 1, direct measurement of Kd prevented by intermediate exchange", "result": "low to sub‐µmol/L"}, {"measurement": "specific binding to Bet v 1 (1H-15N HSQC spectra)", "setting": "Bet_v_1; absence vs presence of compound", "result": "specifically binds"}, {"measurement": "cathepsin S fluorogenic activity", "setting": "cathepsin S; 10 nmol/L protease, 100 µmol/L ligand, 50 µmol/L substrate, pH 5.0, 2 mmol/L DTT (Figure 3A)", "result": "specifically inhibited"}, {"measurement": "cathepsin S fluorogenic activity", "setting": "cathepsin S; PPE1 5 µmol/L, 15 min (Figure 4A)", "result": "inhibits"}, {"measurement": "cathepsin S activity in the presence of TCEP", "setting": "cathepsin S; PPE1 5 µmol/L, 0.5 mmol/L TCEP instead of DTT (Figure 4D)", "result": "completely abolished"}, {"measurement": "legumain activity in the presence of DTT and TCEP", "setting": "legumain", "result": "no inhibitory effect"}]}
